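Cultured in 96-well plates, cells were exposed to test compound for 48 hours across five concentrations. At the GI50, growth is halved. At the TGI there is no net growth.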 Some results are limits rather than exact numbers.

TGI and GI50 data for 23 compounds are collected here from PubChem BioAssay (NCI).

Experiment in all cases: NCI tumour cell line growth inhibition, 48 h
Test [1] concerns UACC-257 melanoma.
The subject of test [2] is U251 CNS.
For test [3], the system named is HT29 colon.
Test [4] has as its system BT-549 breast.
For test [5], the system named is UACC-62 melanoma.
Test [6] concerns LOX IMVI melanoma.
For test [7], the system named is SK-OV-3 ovarian.
Test [8] has as its system K-562 leukemia.
Test [9] relates to HOP-92 NSCLC.
The test system of test [10] is DU-145 prostate.

On to `COc1ccc(C2=[S+]C(c3ccccc3)(c3ccccc3)c3ccccc32)cc1`, for which the TGI in [1] stood at 46.9 µM; in test [2] it was 45.3 µM; in test [3], 30.3 µM; in test [4] it was 53.9 µM; in test [5], 53.6 µM; in test [6] it was 31.9 µM. For the same compound, the TGI in [7] was over 100 µM; in [8] it was over 100 µM; in test [9] it was 39.4 µM; in [10], 65.7 µM.
Turning to `CCOC(=O)c1cn2c(n1)sc1cc(OC)ccc12`, the TGI in test [1] is over 100 µM; in [2] it was 21.9 µM; in test [3], 20.2 µM; in test [4], over 100 µM; in [5], over 100 µM; in test [6], over 100 µM. In addition, the TGI is over 100 µM in test [7], over 100 µM in test [8], over 100 µM in test [9] and 24.6 µM in test [10].
Consider `CC(O)c1cc2c(s1)C(=O)c1c(C(C)O)csc1C2=O` (stereo not given), for which the TGI in [1] is 0.216 µM; in test [2], 4.32 µM; in test [3], 2.7 µM; in test [4], 0.378 µM; in test [5] it was 0.183 µM; in [6] it was 1.53 µM. Further, the TGI in [7] was found to be 1.76 µM; in test [8], 0.616 µM; in test [9], 0.762 µM; in test [10], 0.242 µM.
Turning to `O=C(N/N=C\c1cccc2ccccc12)Nc1ccccc1`, the TGI in [1], in test [2], in test [3], in [4], in test [5] and in test [6] was over 100 µM throughout. The TGI in [7], in test [8], in test [9] and in test [10] was over 100 µM in each case.
Take `NC(=O)CSc1c2cc(O)ccc2nc2ccc(O)cc12`: the TGI in test [1], in test [2], in test [3], in test [4], in test [5] and in [6] was over 10 µM in each case. Further, the TGI in test [7], in test [8], in test [9] and in test [10] was over 10 µM each time.
Regarding `N#Cc1c(Cl)c2cccnc2n2c1nc1ccccc12`, the TGI amounted to 7.5 µM in [1]; 10.3 µM in test [2]; 3.61 µM in [3]; 9.28 µM in test [4]; 9.1 µM in [5]; 3.51 µM in test [6]. Moreover, the TGI in test [7] is 30 µM; in test [8] it was 6.05 µM; in [9], 3.91 µM; in [10], 4.03 µM.
For the compound `CC1(C)CC(=O)c2c(nc3c(ccc4ccccc43)c2-c2ccc(NC(=O)CCC(=O)Nc3ccc(-c4c5c(nc6c4ccc4ccccc46)CC(C)(C)CC5=O)cc3)cc2)C1`, the TGI in [1], in test [2], in test [3], in test [4], in test [5] and in [6] was over 100 µM throughout. Further, the TGI in [7], in test [8], in test [9] and in test [10] was over 100 µM throughout.
In the case of `CCCCCCCCC/C=C1/CC(CO)(COC(=O)CC(C(C)C)C(C)C)OC1=O` (stereo not given), the TGI in [1] was determined as 26 µM; in [2], 25.6 µM; in [3], 29.9 µM; in test [4] it was 27.7 µM; in test [5] it was 25.6 µM; in test [6] it was 24.7 µM. Moreover, the TGI in test [7] was found to be 31.5 µM; in test [8] it was 28.6 µM; in test [9], 15.8 µM; in test [10], 25.3 µM.
Take `COc1ccc(/C=C2\C[C@H]3[C@@H]4CCC5=C/C(=N/O)CC[C@]5(C)[C@H]4CC[C@]3(C)\C2=N\O)cc1`: the TGI is over 100 µM in [1]; over 100 µM in test [2]; 45.3 µM in test [3]; 53.7 µM in test [4]; over 100 µM in test [5]; over 100 µM in test [6]. For the same compound, the TGI in test [7], in test [8], in [9] and in test [10] was over 100 µM in each case.
`C[C@H]1C2Cc3cc(O)ccc3[C@@]1(C)CCN2CCc1ccc(N)cc1`: the TGI in test [1] is 36.5 µM; in test [2], 33.9 µM; in test [3] it was 31.9 µM; in test [4] it was over 100 µM; in [5], over 100 µM; in test [6], 28.2 µM. The TGI in test [7] was over 100 µM; in test [8], 52.6 µM; in test [9] it was 73.7 µM; in test [10], over 100 µM.
As to `N#CC1=C(N)N(/N=C/c2ccccc2)C(c2ccccc2)C1(C#N)C#N` (stereo not given), the TGI in test [1] was 23.4 µM; in test [2] it was 32.6 µM; in [3], 15.7 µM; in test [4], 29.4 µM; in test [5], 29.5 µM; in test [6] it was 14.6 µM. Further, the TGI in [7] was 26.3 µM; in [8], over 26 µM; in test [9], 6.54 µM; in test [10], 30.6 µM.
On to `Cc1cc(N/N=C/c2nc(-c3ccc(Cl)cc3)oc2C)c2cc(Br)ccc2n1`, for which the GI50 is 3.49 µM in test [1]; 1.73 µM in test [2]; 2.31 µM in test [3]; 6.91 µM in test [4]; 2.02 µM in test [5]; 1.93 µM in test [6]. The GI50 in test [7] is 5.84 µM; in test [8] it was 1.1 µM; in test [9], 3.24 µM; in test [10] it was 2.66 µM. Besides, the TGI in [1] is 15 µM; in [2] it was 3.29 µM; in test [3] it was 5.99 µM; in test [4] it was 19.9 µM; in test [5], 4.43 µM; in test [6] it was 3.73 µM. Further, the TGI in test [7] was found to be 18.3 µM; in [8], 3.61 µM; in [9], 16.4 µM; in test [10], 7.67 µM.
With `COC(=O)c1c(CC(Cc2ccc3c(c2)CCCC3)C(=O)O)ccc2c1CCCC2` (stereo not given), the TGI was 33.3 µM in test [1]; over 100 µM in [2]; over 100 µM in test [3]; over 100 µM in [4]; 52.4 µM in test [5]; 31.4 µM in test [6]. Further, the TGI in test [7] was over 100 µM; in test [8], over 100 µM; in test [9], 50.9 µM; in test [10] it was over 100 µM.
On to `O=c1[nH]c(SCc2cccc([N+](=O)[O-])c2)nc2nc[nH]c12`, for which the TGI in test [1], in test [2], in [3], in test [4], in test [5] and in test [6] was over 100 µM throughout. Moreover, the TGI in test [7], in test [8], in test [9] and in test [10] was over 100 µM throughout.
Regarding `N#[N+]c1c([O-])c2ccccc2c2ccccc12`, the TGI in [1] was over 100 µM; in test [2] it was over 100 µM; in test [3], over 100 µM; in test [4] it was over 100 µM; in [5], 69.7 µM; in [6], 86 µM. Further, the TGI in [7], in [8], in test [9] and in [10] was over 100 µM each time.
Take `Cc1ccc(-c2c(-c3ccccc3)[nH]c(C)c2C(=O)ONC(=O)c2ccccc2)cc1`: the TGI is 27.3 µM in test [1]; 4.07 µM in test [2]; over 42.4 µM in [3]; 14.1 µM in test [4]; 22.2 µM in [5]; 4.45 µM in test [6]. For the same compound, the TGI in test [7] stood at 30 µM; in test [8], 6.72 µM; in [9] it was 4.09 µM; in [10], 3.82 µM.
For the compound `CN=C(Nc1ccc(OC)c2ccccc12)SC`, the TGI in [1], in [2], in test [3], in test [4], in test [5] and in [6] was over 10 µM each time. The TGI in test [7], in test [8], in test [9] and in test [10] was over 10 µM each time.
Take `O=c1[nH]nc(-c2ccccc2)n1/N=C/c1ccccc1O`: the TGI in test [1], in test [2], in [3], in test [4], in [5] and in test [6] was over 100 µM throughout. The TGI in [7] was 53.9 µM; in test [8], over 100 µM; in test [9], over 100 µM; in [10] it was over 100 µM.
Turning to `Cc1ccc(S(=O)(=O)CNC(=O)C(O)(O)C(F)(F)F)cc1`, the TGI in [1], in test [2], in test [3], in [4], in [5] and in test [6] was over 100 µM in each case. In addition, the TGI in [7], in [8], in test [9] and in [10] was over 100 µM in each case.
As to `N=c1oc2ccccc2cc1-c1nc2ccccc2[nH]1`, the TGI in test [1] was over 100 µM; in test [2], over 100 µM; in test [3], over 100 µM; in test [4] it was 87.4 µM; in [5], over 100 µM; in test [6], over 100 µM. In addition, the TGI in test [7] is over 100 µM; in test [8] it was 82.6 µM; in test [9] it was 35.5 µM; in test [10], 35.7 µM.
Turning to `N#CCCN(CCC#N)c1ccc(/C=C2\N=C(c3ccccc3)N(c3ccc(C(=O)O)cc3)C2=O)cc1`, the TGI in test [1] was over 100 µM; in test [2] it was over 100 µM; in test [3], over 100 µM; in [4], 71.2 µM; in test [5], 67.5 µM; in [6] it was 93.2 µM. Also, the TGI in test [7] was over 100 µM; in test [8], over 100 µM; in test [9], 30.1 µM; in [10], over 100 µM.
Regarding `O=[N+]([O-])C(/C(Cl)=C(\Cl)Br)=C(/Cl)SCc1ccccc1`, the TGI is 22.1 µM in test [1]; 18.5 µM in test [2]; 5.54 µM in test [3]; 7.38 µM in test [4]; 16.5 µM in test [5]; 3.95 µM in [6]. In addition, the TGI was determined as 33.7 µM in test [7], 4.12 µM in test [8], 5.34 µM in test [9] and 25.7 µM in [10].
Regarding `CC(C)=NOC(=O)CNC(=O)C(Cc1ccccc1)NC(=O)C(C)NC(=O)OC(C)(C)C` (stereo not given), the TGI in test [1], in test [2], in test [3], in [4], in [5] and in test [6] was over 100 µM throughout. The TGI in [7], in test [8], in test [9] and in [10] was over 100 µM in each case.
